O=C(O)c1ccco1
solubility (mole fraction)
Details | in 1,2-dichloroethane | in MIBK | in acetonitrile | in diisopropyl ether | in methanol | in n-hexane | in toluene
283.15 K | 0.014 | 0.095 | 0.046 | 0.035 | 0.347 | – | 0.005
288.15 K | 0.017 | 0.11 | 0.057 | 0.041 | 0.393 | – | 0.006
293.15 K | 0.023 | 0.122 | 0.064 | 0.048 | 0.428 | – | 0.008
298.15 K | 0.029 | 0.137 | 0.077 | 0.054 | 0.451 | 0.001 | 0.011
303.15 K | 0.035 | 0.154 | 0.093 | 0.061 | 0.48 | 0.001 | 0.013
308.15 K | 0.046 | 0.177 | 0.115 | 0.069 | 0.504 | 0.001 | 0.017
313.15 K | 0.057 | 0.195 | 0.132 | 0.077 | 0.524 | 0.002 | 0.021
318.15 K | 0.068 | 0.211 | 0.155 | 0.087 | 0.551 | 0.002 | 0.027
323.15 K | 0.084 | 0.237 | 0.182 | 0.097 | 0.571 | 0.003 | 0.034
328.15 K | 0.103 | 0.26 | 0.208 | 0.108 | 0.607 | 0.004 | 0.045
333.15 K | 0.126 | 0.286 | 0.242 | 0.121 | 0.643 | 0.005 | 0.056

— BigSolDB 2.1
